In brackets after ≈: the same amount, converted by molar mass.
Key:
[1] = 1-Octanol-water distribution coefficient, log P of compound; assay type: physicochemical
[2] = Solubility of compound in 1% DMSO at 100 mg/ml; assay type: physicochemical
[3] = Solubility of the compound in water; assay type: physicochemical
[4] = Cytotoxicity against human LN229 cells assessed as concentration required for induction of cell death after 24 hrs by crystal violet staining based light microscopic analysis; assay type: functional, LN-229
[5] = Solubility of the compound in ethanol; assay type: physicochemical
[6] = Solubility of the compound in DMSO; assay type: physicochemical
[7] = Solubility of the compound in CHCl3/TFA; assay type: physicochemical
[8] = Solubility of the compound in trifluoroacetic acid; assay type: physicochemical
[9] = Solubility of the compound in DMSO/TFA; assay type: physicochemical
[10] = Solubility of the compound in isopropanol; assay type: physicochemical
[11] = Solubility of the compound in chloroform; assay type: physicochemical

Row | Structure (SMILES) | logP [1] | solubility [2] | solubility [3] [µg/mL] | Activity [4] [µg/mL] | solubility [5] | solubility [6] | solubility [7] | solubility [8] | solubility [9] | solubility [10] | solubility [11]
1 | CN1C(=O)C(C(=O)Nc2ccc(Cl)cc2)C(=O)N(C)C1=O | 1.18 | Insoluble | 130 (≈ 420 µM) | 10 | – | – | – | – | – | – | –
2 | O=C(NNC(=O)C1C(=O)NC(=O)N(c2ccccc2)C1=O)Nc1ccc(O)c([N+](=O)[O-])c1 (stereo not drawn) | – | – | – | 100 | Insoluble | Insoluble | Insoluble | Insoluble | Insoluble | Insoluble | Insoluble
3 | O=C(NNC(=O)C1C(=O)NC(=O)N(c2ccccc2)C1=O)Nc1ccc([N+](=O)[O-])cc1 (stereo not drawn) | – | – | – | 100 | Insoluble | Insoluble | Insoluble | Insoluble | Insoluble | Insoluble | Insoluble
4 | CN1C(=O)NC(=O)C(C(=O)NNC(=O)Nc2ccc(O)cc2)C1=O (stereo not drawn) | 1.08 | Insoluble | 70 (≈ 209 µM) | – | Insoluble | Insoluble | Insoluble | Insoluble | Insoluble | Insoluble | Insoluble
5 | N#Cc1ccc(NC(=O)NNC(=O)C2C(=O)NC(=O)N(c3ccccc3)C2=O)cc1 (stereo not drawn) | – | – | – | 100 | Insoluble | Insoluble | Insoluble | Insoluble | Insoluble | Insoluble | Insoluble
6 | CN1C(=O)C(C(=O)Nc2ccccc2)C(=O)N(C)C1=O | 0.4 | Insoluble | 140 (≈ 509 µM) | 100 | – | – | – | – | – | – | –
7 | CN1C(=O)C(C(=O)NNC(=O)Nc2ccc(Cl)c(Cl)c2)C(=O)N(C)C1=O | 0.73 | Insoluble | 500 (≈ 1240 µM) | 1 | Insoluble | Insoluble | Insoluble | Insoluble | Insoluble | Insoluble | Insoluble
